Experimental data: patent US20060069132A1, “Azolecarboxamide herbicides” (priority 2004, published 2006)

Key:
pigweed = test: Test C pre-/postemergence herbicide test; format: in vivo, Amaranthus retroflexus; details: for Pigweed plant response rating: 500 g ai/ha
Procedure, shortened: (§1)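 Pre/post spray; non-phytotoxic solvent + surfactant. Post-timing 1–4 leaves, 2–18 cm. Read-out: visual % control vs untreated, day 12–14, greenhouse.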

yellow nutsedge = test: Test C pre-/postemergence herbicide test; format: in vivo, Cyperus esculentus; details: for Nutsedge, Yellow plant response rating: 500 g ai/ha
Procedure, shortened: as §1

ducksalad = test: Test C flooded paddy test; format: in vivo, Heteranthera limosa; details: for Plant response rating, Ducksalad: 500 g ai/ha, visual rating after 12 to 14 days
soybean = test: Test C pre-/postemergence herbicide test; format: in vivo, Glycine max; details: for Soybean plant response rating: 500 g ai/ha
Procedure, shortened: as §1

velvetleaf = test: Test C pre-/postemergence herbicide test; format: in vivo, Abutilon theophrasti; details: for Velvetleaf plant response rating: 500 g ai/ha
Procedure, shortened: as §1

goosegrass = test: Test C pre-/postemergence herbicide test; format: in vivo, Eleusine indica; details: for Goosegrass plant response rating: 500 g ai/ha
Procedure, shortened: as §1

morningglory = test: Test A pre-/postemergence herbicide test; format: in vivo, Ipomoea spp.
Procedure, shortened: (§2)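 Greenhouse injury scoring (0–100, complete control = 100) at approximately ten days follows simultaneous pre- and postemergence application. Soil received a directed spray after seeding; seedlings of 2–10 cm at the one- to two-leaf stage were sprayed to runoff.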

redroot pigweed = test: Test A pre-/postemergence herbicide test; format: in vivo, Amaranthus retroflexus
Procedure, shortened: as §2

giant foxtail [1] = test: Test C pre-/postemergence herbicide test; format: in vivo, Setaria faberi; details: for Foxtail, Giant plant response rating: 500 g ai/ha
Procedure, shortened: as §1

common ragweed = test: Test C pre-/postemergence herbicide test; format: in vivo, Ambrosia elatior; parameters: key to Plant response rating, Ragweed: 0 = no effect, 100 = complete control; details: for Ragweed plant response rating: 500 g ai/ha
Procedure, shortened: as §1

barnyardgrass = test: Test C flooded paddy test; format: in vivo, Echinochloa crus-galli; details: for Plant response rating, Barnyardgrass: 500 g ai/ha, visual rating after 12 to 14 days
Procedure, shortened: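 Postemergence sprays applied to plants 2 to 18 cm tall (1- to 4-leaf stage); paddy species grown to 2-leaf stage under flooding. After 12 to 14 days in greenhouse, visual rating versus untreated controls on 0–100 scale (0 no effect, 100 complete control).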

giant foxtail [2] = test: Test A pre-/postemergence herbicide test; format: in vivo, Setaria faberi
Procedure, shortened: as §2

large crabgrass = test: Test C pre-/postemergence herbicide test; format: in vivo, Digitaria sanguinalis; details: for Crabgrass, Large plant response rating: 500 g ai/ha
Procedure, shortened: as §1

[3] = 125 g ai/ha, scale 0 (no effect) to 100 (complete control), visual, 12 to 14 days, preemergence
[4] = Postemergence, 250 g ai/ha, scale 0 to 100, 0 no effect, 100 complete control
[5] = Preemergence, scale 0 to 100, 0 no effect, 100 complete control
[6] = postemergence, 125 g ai/ha, scale 0 to 100
[7] = postemergence, 62 g ai/ha, scale 0 to 100
[8] = 62 g ai/ha, scale 0 to 100 (0 no effect, 100 complete control)
[9] = 250 g ai/ha, scale of 0 to 100, 0 is no effect, 100 is complete control
[10] = scale 0 to 100 (0 no effect, 100 complete control)
[11] = Postemergence, 500 g ai/ha, 0 to 100 scale, 0 no effect, 100 complete control
[12] = Postemergence, 2000 g ai/ha, 0 to 100 scale, 0 no effect, 100 complete control
[13] = Preemergence, 500 g ai/ha, visual rating, 0 to 100 scale (0 no effect, 100 complete control)
[14] = Preemergence, 2000 g ai/ha, visual rating, 0 to 100 scale (0 no effect, 100 complete control)
[15] = 250 g ai/ha, scale 0 to 100 (0 no effect, 100 complete control), visual, 12 to 14 days, preemergence
[16] = 125 g ai/ha, scale of 0 to 100, 0 is no effect, 100 is complete control

CCn1nc(C(C)(C)C)cc1C(=O)Nc1cccc(C(=O)NC2CC2)n1 [Compound 146]
95: Plant response rating, Pigweed (pigweed; [3]) | Pigweed plant response rating (redroot pigweed; [14])
0: Plant response rating (0 = no effect, 100 = complete control), Nutsedge, Yellow (yellow nutsedge; 62 g ai/ha, preemergence) | Plant response rating, Nutsedge, Yellow (yellow nutsedge; [3]) | Nutsedge, Yellow plant response rating (yellow nutsedge; Postemergence, scale 0 to 100) | Plant response rating, Nutsedge, Yellow (yellow nutsedge; [4]) | Nutsedge, Yellow plant response rating (yellow nutsedge; [5]) | Plant response rating, Nutsedge, Yellow (yellow nutsedge; [6]) | Plant response rating, Nutsedge, Yellow (yellow nutsedge; [7]) | Ducksalad plant response rating (ducksalad; [8]) | Ducksalad plant response rating (ducksalad; 125 g ai/ha, scale 0 to 100 (0 no effect, 100 complete control)) | Plant response rating (0 = no effect, 100 = complete control), Soybean (soybean; 62 g ai/ha, preemergence) | Plant response rating, Soybean (soybean; [3]) | Soybean plant response rating (soybean; [5]) | Plant response rating (0 = no effect, 100 = complete control), Goosegrass (goosegrass; 62 g ai/ha, preemergence) | Plant response rating, Goosegrass (goosegrass; [3]) | Goosegrass plant response rating (goosegrass; Postemergence, scale 0 to 100) | Plant response rating, Goosegrass (goosegrass; [4]) | Plant response rating, Goosegrass (goosegrass; [6]) | Plant response rating, Goosegrass (goosegrass; [7]) | Plant response rating, Morningglory (morningglory; [12]) | Plant response rating (0 = no effect, 100 = complete control), Foxtail, Giant (giant foxtail [1]; 62 g ai/ha, preemergence) | Plant response rating, Foxtail, Giant (giant foxtail [1]; [4]) | Plant response rating, Foxtail, Giant (giant foxtail [1]; [6]) | Plant response rating, Foxtail, Giant (giant foxtail [1]; [7]) | Plant response rating (0 = no effect, 100 = complete control), Ragweed (common ragweed; 62 g ai/ha, preemergence) | Plant response rating, Ragweed (common ragweed; [3]) | Ragweed plant response rating (common ragweed; Postemergence, scale 0 to 100) | Plant response rating, Ragweed (common ragweed; [4]) | Plant response rating, Ragweed (common ragweed; [6]) | Plant response rating, Ragweed (common ragweed; [7]) | Barnyardgrass plant response rating (barnyardgrass; [8]) | Barnyardgrass plant response rating (barnyardgrass; [16]) | Barnyardgrass plant response rating (barnyardgrass; [9]) | Plant response rating, Crabgrass, Large (large crabgrass; [6]) | Plant response rating, Crabgrass, Large (large crabgrass; [7])
35: Plant response rating, Velvetleaf (velvetleaf; [6])
30: Plant response rating, Soybean (soybean; [4]) | Plant response rating, Velvetleaf (velvetleaf; [7])
45: Foxtail, Giant plant response rating (giant foxtail [2]; [13]) | Foxtail, Giant plant response rating (giant foxtail [2]; [14])
70: Ragweed plant response rating (common ragweed; [5]) | Crabgrass, Large plant response rating (large crabgrass; [5])
90: Plant response rating, Pigweed (pigweed; [6])
85: Pigweed plant response rating (redroot pigweed; [11]) | Pigweed plant response rating (redroot pigweed; preemergence, 500 g ai/ha, visual injury, 0 to 100 scale (0 no effect, 100 complete control)) | Crabgrass, Large plant response rating (large crabgrass; Postemergence, scale 0 to 100)
40: Plant response rating, Velvetleaf (velvetleaf; [3]) | Velvetleaf plant response rating (velvetleaf; Postemergence, scale 0 to 100) | Plant response rating, Velvetleaf (velvetleaf; [4]) | Plant response rating, Foxtail, Giant (giant foxtail [2]; [12])
20: Ducksalad plant response rating (ducksalad; [9]) | Plant response rating, Ducksalad (ducksalad; [10]) | Plant response rating, Soybean (soybean; [6]) | Plant response rating, Soybean (soybean; [7]) | Plant response rating, Barnyardgrass (barnyardgrass; [10]) | Plant response rating (0 = no effect, 100 = complete control), Crabgrass, Large (large crabgrass; 62 g ai/ha, preemergence)
15: Foxtail, Giant plant response rating (giant foxtail [2]; [11])
60: Goosegrass plant response rating (goosegrass; [5]) | Plant response rating, Foxtail, Giant (giant foxtail [1]; [15])
5: Morningglory plant response rating (morningglory; [11]) | Morningglory plant response rating (morningglory; [13])
50: Morningglory plant response rating (morningglory; [14]) | Plant response rating, Crabgrass, Large (large crabgrass; [4])
100: Pigweed plant response rating (pigweed; Postemergence, scale 0 to 100) | Plant response rating, Pigweed (pigweed; [4]) | Pigweed plant response rating (pigweed; [5]) | Velvetleaf plant response rating (velvetleaf; [5]) | Plant response rating, Pigweed (redroot pigweed; [12])
80: Plant response rating (0 = no effect, 100 = complete control), Pigweed (pigweed; 62 g ai/ha, preemergence) | Plant response rating, Pigweed (pigweed; [7]) | Soybean plant response rating (soybean; Postemergence, scale 0 to 100) | Foxtail, Giant plant response rating (giant foxtail [1]; [5])
10: Plant response rating, Foxtail, Giant (giant foxtail [1]; [3]) | Foxtail, Giant plant response rating (giant foxtail [1]; Postemergence, scale 0 to 100)

CC(=NO)c1cccc(NC(=O)c2cc(C(C)(C)C)nn2C)c1 [Compound 102]
30: Nutsedge, Yellow plant response rating (yellow nutsedge; [5])
95: Pigweed plant response rating (redroot pigweed; [11])
20: Ducksalad plant response rating (ducksalad; [8]) | Soybean plant response rating (soybean; [5]) | Plant response rating, Velvetleaf (velvetleaf; [3]) | Plant response rating, Ragweed (common ragweed; [3])
50: Plant response rating, Foxtail, Giant (giant foxtail [1]; [3]) | Barnyardgrass plant response rating (barnyardgrass; [16]) | Barnyardgrass plant response rating (barnyardgrass; [9])
100: Plant response rating, Pigweed (pigweed; [3]) | Pigweed plant response rating (pigweed; [5]) | Plant response rating, Goosegrass (goosegrass; [3]) | Goosegrass plant response rating (goosegrass; [5]) | Plant response rating, Pigweed (redroot pigweed; [12]) | Ragweed plant response rating (common ragweed; [5]) | Plant response rating (0 = no effect, 100 = complete control), Crabgrass, Large (large crabgrass; 62 g ai/ha, preemergence) | Plant response rating, Crabgrass, Large (large crabgrass; [3]) | Plant response rating, Crabgrass, Large (large crabgrass; [15]) | Crabgrass, Large plant response rating (large crabgrass; [5])
65: Morningglory plant response rating (morningglory; [13]) | Plant response rating, Foxtail, Giant (giant foxtail [2]; [12])
55: Plant response rating, Morningglory (morningglory; [12])
60: Velvetleaf plant response rating (velvetleaf; [5]) | Foxtail, Giant plant response rating (giant foxtail [2]; [13])
90: Plant response rating (0 = no effect, 100 = complete control), Pigweed (pigweed; 62 g ai/ha, preemergence) | Ducksalad plant response rating (ducksalad; [9]) | Plant response rating, Ducksalad (ducksalad; [10]) | Plant response rating (0 = no effect, 100 = complete control), Goosegrass (goosegrass; 62 g ai/ha, preemergence) | Morningglory plant response rating (morningglory; [14]) | Pigweed plant response rating (redroot pigweed; [14])
35: Morningglory plant response rating (morningglory; [11])
80: Ducksalad plant response rating (ducksalad; [16]) | Pigweed plant response rating (redroot pigweed; [13]) | Plant response rating, Foxtail, Giant (giant foxtail [1]; [15]) | Foxtail, Giant plant response rating (giant foxtail [1]; [5])
85: Foxtail, Giant plant response rating (giant foxtail [2]; [14])
10: Plant response rating (0 = no effect, 100 = complete control), Foxtail, Giant (giant foxtail [1]; 62 g ai/ha, preemergence) | Plant response rating (0 = no effect, 100 = complete control), Ragweed (common ragweed; 62 g ai/ha, preemergence) | Barnyardgrass plant response rating (barnyardgrass; [8])
0: Plant response rating (0 = no effect, 100 = complete control), Nutsedge, Yellow (yellow nutsedge; 62 g ai/ha, preemergence) | Plant response rating, Nutsedge, Yellow (yellow nutsedge; [3]) | Plant response rating (0 = no effect, 100 = complete control), Soybean (soybean; 62 g ai/ha, preemergence) | Plant response rating, Soybean (soybean; [3])
70: Plant response rating, Barnyardgrass (barnyardgrass; [10])
45: Foxtail, Giant plant response rating (giant foxtail [2]; [11])
